Measured values as given in patent US9029414B2, “Triterpenoid compounds and methods of use thereof” (Biotechnology Research Corporation, priority 2008, dated 2015).

Legend:
EP4 receptor = EP4 receptor (Homo sapiens, UniProt P35408); assay: Radioligand competition binding assay, EP4; conditions: EP4, target PGE2; compound at 10 μM in duplicate; read-out: % inhibition of control specific binding
Method: DA001 was further evaluated against 32 receptor binding assays. Radioligand competition assays were conducted whereby DA001 was tested at one concentration (10 uM) in duplicate. […] It could compete with the radioligand [^3H] PGE2 binding at the EP1 and EP4 receptors, and weakly competed with the EP2 and FP receptors.
To determine the targets of DA compounds, the compound was assessed in binding assays for the family of prostanoid receptors. Both compounds were tested at a single concentration (10 μM) in duplicate. DA001 and DA021 inhibit the ligand binding of prostaglandin E2 receptors EP1, EP2 and EP4 and moderately to prostaglandin (PGF) to its receptor (FP), but not prostaglandin I (PGI2), thromoboxane A and prostaglandin D2 to their receptors.

cortical neurons = assay: Cortical neuron survival assay against kainate excitotoxicity (LDH); type: cell-based, Sprague-Dawley rats; conditions: kainate 5-500 μM 20 min; for protection from kainate-induced excitotoxicity (LDH release): 30 μM 24 hrs
Method: Cortical neurons were prepared from embryonic day 18 Sprague-Dawley rats. After the cortices had been removed from the brain, isolated cells were plated onto Poly d-Lysine (PDL) (P0899, Sigma)-coated 48 well plates (150687, NUNC) at a density of 2×10^5 cell per well using Neurobasal Medium (NB) (21103-049, Gibco) with B27 supplement (17504-044, Gibco), penicillin/streptomycin (15140, Gibco) and 1 mM L-glutamine (25030, Gibco). The cell culture was incubated at 37° C. in a humidified atmosphere of 5% CO2 in air. Medium was changed to growth medium (Neurobasal Medium with penicillin/streptomycin and B27 supplement) after 3 hours. Half medium was changed with growth medium every 2-3 days to maintain the cells until day 10 in vitro (DIV 10). Serial dilutions of samples were prepared in growth medium and DMSO was used as vehicle control. For pre-treating assay, half of the medium was removed from wells, and equal amount of diluted samples were replaced. Cells were then incubated for 2 hours at 37° C. in a humidified atmosphere of 5% CO2 in air. Culture was subsequently rinsed with Locke's solution (5 mM potassium chloride, 128 mM sodium chloride, 2.7 mM calcium chloride, 1 mM di-sodium hydrogen orthophosphate, 5 mM HEPES and 10 mM Glucose in Milli-Q water), then incubated with Locke's solution in the presence of glycine (10 μM) for 15 minutes before […] treatment. Kainate dissolved in Locke's plus glycine solution was then substituted and incubated for 20 minutes at 37° C. […] Afterwards, cells were incubated in growth medium for 18-24 hours and detected with Cytotoxicity Detection Kit (1644793, Roche). […]
FIG. 5 illustrates that DA001 protects neurons against differing concentrations of kainate. […] LDH release into the medium was then measured.
Cortical neurons were treated with DA021 or DA034 and subsequently subjected to varying concentrations of kainate. […] LDH release into the medium was then measured.

Chain of EP4 receptor (P35408 whole entry): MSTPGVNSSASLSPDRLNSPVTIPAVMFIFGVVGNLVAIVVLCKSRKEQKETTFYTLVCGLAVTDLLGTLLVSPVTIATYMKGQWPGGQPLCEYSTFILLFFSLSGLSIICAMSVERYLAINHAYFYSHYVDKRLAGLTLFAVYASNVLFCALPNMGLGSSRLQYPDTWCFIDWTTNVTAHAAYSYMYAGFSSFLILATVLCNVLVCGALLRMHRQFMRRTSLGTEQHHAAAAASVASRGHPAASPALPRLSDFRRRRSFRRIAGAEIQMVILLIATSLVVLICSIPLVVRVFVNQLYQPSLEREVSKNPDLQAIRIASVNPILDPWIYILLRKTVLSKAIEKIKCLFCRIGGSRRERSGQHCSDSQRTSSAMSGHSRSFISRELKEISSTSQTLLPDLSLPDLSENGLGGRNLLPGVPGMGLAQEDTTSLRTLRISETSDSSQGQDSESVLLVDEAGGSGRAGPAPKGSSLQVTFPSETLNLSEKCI

Structure (SMILES) | inhibition at 10 µM (EP4 receptor) | cell death (LDH release) vs DMSO control (cortical neurons; 40 μM 24 hrs, at high concentrations of kainate) | protection from kainate-induced excitotoxicity (LDH release) (cortical neurons)
C=C(C)[C@@H]1CC[C@]2(C(=O)O)CC[C@]3(C)C(CC[C@@H]4[C@@]5(C)CC[C@H](O[C@@H]6OC[C@H](O)[C@H](O)[C@H]6O[C@@H]6O[C@@H](C)[C@H](O)[C@@H](O)[C@H]6O)[C@@](C)(CO)[C@@H]5CC[C@]43C)[C@@H]12 (stereo partly drawn) [DA001, 3-O-[α-L-rhamnopyranosyl-(1→2)-α-L-arabinopyranosyl]-3,23-dihydroxy-20(29)-lupen-28-oic acid] | 49% | significant reduction in cell death | –
C=C(C)[C@@H]1CC[C@]2(/C=N/O)CC[C@]3(C)C(CCC4[C@@]5(C)CCC(=O)[C@@](C)(CO)[C@@H]5CC[C@]43C)C12 (some centres unmarked) [DA021] | 36% | – | protect neurons against differing concentrations of Kainate
CC(=O)OC[C@]12CC[C@@H](C3(C)CO3)C1C1CCC3[C@@]4(C)CC[C@H](O)[C@@](C)(CO)[C@@H]4CC[C@@]3(C)[C@]1(C)CC2 (some centres unmarked) [DA034] | – | – | protect neurons against differing concentrations of Kainate
